According to patent US6265437A, “Aminoalkanesulphonic acid derivatives, their preparation and their use as medicaments” (LIPHA, priority 2000, dated 2001):

Test: displacement of tritiated calcium acetylhomotaurinate from a preparation of rat brain section
Format: binding
Settings: in vitro, displacement of titiated calcium acetylhomotaurinate
Text: In in vitro tests, it has furthermore been shown that these compounds have the ability to displace titiated calcium acetylhomotaurinate from a preparation of rat brain section.

Row | Compound | IC50 [µM]
1 | CC(C)(C)C(=O)NCCCS(=O)(=O)O [Example 1, calcium 3-(2-2-(dimethyl)propanoylamino)propanesulphonate] | 46.9
2 | CC(C)C(=O)NCCCS(=O)(=O)O [Example 3, magnesium 3-(2-(methyl)propanoylamino)propanesulphonate] | 28.9
3 | CC(C)CC(=O)NCCCS(=O)(=O)O [Example 14, magnesium 3-(3-(methyl)butanoylamino)propanesulphonate] | 42
4 | CC(C)(C)C(=O)NCCCS(=O)(=O)O [Example 15, magnesium 3-(2,2-(dimethyl)propanoylamino)propanesulphonate] | 49.5
5 | CC(=O)NC(C)CCS(=O)(=O)O (centres unmarked) [Example 17, calcium 3-(acetylamino)-3-methylpropanesulphonate] | 93
